{"source": "patent US8106055B2", "about": "“Substituted amide compounds” (Gruenenthal GmbH, priority 2007, dated 2012)"}
{"biological_target": "T1, human μ opiate receptor (Homo sapiens, UniProt P35372)", "T1 construct": "purchased PerkinElmer Life Sciences, Zaventem, Belgium RB-HOM; host or cells: CHO-K1 cells (membrane preparation)", "T1 sequence (P35372 whole entry)": "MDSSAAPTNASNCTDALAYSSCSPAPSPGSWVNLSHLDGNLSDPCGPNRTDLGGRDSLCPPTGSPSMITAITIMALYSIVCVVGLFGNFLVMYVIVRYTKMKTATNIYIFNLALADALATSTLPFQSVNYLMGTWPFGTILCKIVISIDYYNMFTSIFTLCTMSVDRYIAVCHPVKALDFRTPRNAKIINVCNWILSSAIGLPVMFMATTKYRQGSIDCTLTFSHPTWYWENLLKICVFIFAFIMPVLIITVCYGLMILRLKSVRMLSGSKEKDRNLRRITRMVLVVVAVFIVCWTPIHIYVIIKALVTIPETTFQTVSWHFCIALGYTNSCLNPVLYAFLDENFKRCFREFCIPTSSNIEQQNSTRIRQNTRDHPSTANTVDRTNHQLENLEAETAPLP", "experiment": "Affinity for the human μ opiate receptor ([3H]-naloxone displacement, CHO-K1 receptor membrane preparation, SPA)", "format": "binding", "conditions": "test concentration of 1 μM; read-out: μ (binding on the μ opioid receptor, % inhibition)", "method_in_brief": "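Test compounds, 1 nmol/l [3H]-naloxone and CHO-K1 membranes bearing the human μ opiate receptor are combined with WGA-SPA beads. After 90 minutes at room temperature, plates are centrifuged and radioactivity counted. Specific-binding inhibition at 1 μmol/l is given in percent.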", "units": {"inhibition at 1 µM": "%"}}
{"smiles": "COc1cc(C)c(S(=O)(=O)N2CCC(OCC(=O)NC3CCC(C(c4cccs4)N(C)C)CC3)CC2)c(C)c1C", "note": "(stereo not drawn) [Example 1, N-(4-((dimethylamino)(thiophen-2-yl)methyl)cyclohexyl)-2-(1-(4-methoxy-2,3,6-trimethylphenylsulfonyl)piperidin-4-yloxy)acetamide]", "inhibition at 1 µM": 100}
{"smiles": "Cc1ccc(S(=O)(=O)N(C)CCOCC(=O)NCC2CCC(C(c3cccs3)N(C)C)CC2)cc1", "note": "(stereo not drawn) [Example 4, N-((4-((dimethylamino)(thiophen-2-yl)methyl)cyclohexyl)methyl)-2-(2-(N,4-dimethylphenylsulfonamido)ethoxy)acetamide]", "inhibition at 1 µM": 99}
{"smiles": "COc1cc(C)c(S(=O)(=O)N2CCC(CCOCC(=O)NC3CCC(C(c4cccs4)N(C)C)CC3)CC2)c(C)c1C", "note": "(stereo not drawn) [Example 5, N-(4-((dimethylamino)(thiophen-2-yl)methyl)cyclohexyl)-2-(2-(1-(4-methoxy-2,3,6-trimethylphenylsulfonyl)piperidin-4-yl)ethoxy)acetamide]", "inhibition at 1 µM": 99}
{"smiles": "CN(C)C(c1ccccc1)C1CCC(NC(=O)COCCN(C)S(=O)(=O)c2c(Cl)cc(Cl)cc2Cl)CC1", "note": "(stereo not drawn) [Example 34, N-(4-((dimethylamino)(phenyl)methyl)cyclohexyl)-2-(2-(2,4,6-trichloro-N-methylphenylsulfonamido)ethoxy)acetamide]", "inhibition at 1 µM": 96}
{"smiles": "COc1cc(C)c(S(=O)(=O)N(C)CCOCC(=O)NCC2CCC(C(c3cccs3)N(C)C)CC2)c(C)c1C", "note": "(stereo not drawn) [Example 35, N-((4-((dimethylamino)(thiophen-2-yl)methyl)cyclohexyl)methyl)-2-(2-(4-methoxy-N,2,3,6-tetramethylphenylsulfonamido)ethoxy)acetamide]", "inhibition at 1 µM": 96}
{"smiles": "CN(C)C(c1cccs1)C1CCC(CNC(=O)COC2CCN(S(=O)(=O)c3ccccc3)C2)CC1", "note": "(stereo not drawn) [Example 36, N-((4-((dimethylamino)(thiophen-2-yl)methyl)cyclohexyl)methyl)-2-(1-(phenylsulfonyl)pyrrolidin-3-yloxy)acetamide]", "inhibition at 1 µM": 96}
{"smiles": "CN(C)C(c1cccs1)C1CCC(CCNC(=O)COCCN(C)S(=O)(=O)c2ccc(Cl)cc2)CC1", "note": "(stereo not drawn) [Example 37, 2-(2-(4-chloro-N-methylphenylsulfonamido)ethoxy)-N-(2-(4-((dimethylamino)(thiophen-2-yl)methyl)cyclohexyl)ethyl)acetamide]", "inhibition at 1 µM": 96}
{"smiles": "COc1ccc(S(=O)(=O)N2Cc3ccccc3CC2COCC(=O)NC2CCC(C(c3ccccc3)N(C)C)CC2)cc1", "note": "(stereo not drawn) [Example 38, N-(4-((dimethylamino)(phenyl)methyl)cyclohexyl)-2-((2-(4-methoxyphenylsulfonyl)-1,2,3,4-tetrahydroisoquinolin-3-yl)methoxy)acetamide]", "inhibition at 1 µM": 96}
{"smiles": "CN(C)C(c1ccccc1)C1CCC(NC(=O)COC2CCCCC2N(C)S(=O)(=O)c2ccc(Cl)c(Cl)c2)CC1", "note": "(stereo not drawn) [Example 39, 2-(2-(3,4-dichloro-N-methylphenylsulfonamido)cyclohexyloxy)-N-(4-((dimethylamino)(phenyl)methyl)cyclohexyl)acetamide]", "inhibition at 1 µM": 96}
{"smiles": "CN(C)C(c1cccc(F)c1)C1CCC(CCNC(=O)COCCN(C)S(=O)(=O)c2c(Cl)cccc2Cl)CC1", "note": "(stereo not drawn) [Example 41, 2-(2-(2,6-dichloro-N-methylphenylsulfonamido)ethoxy)-N-(2-(4-((dimethylamino)(3-fluorophenyl)methyl)cyclohexyl)ethyl)acetamide]", "inhibition at 1 µM": 96}
{"smiles": "CN(C)C(c1cccs1)C1CCC(NC(=O)COC2CCCN(S(=O)(=O)c3ccccc3)C2)CC1", "note": "(stereo not drawn) [Example 42, N-(4-((dimethylamino)(thiophen-2-yl)methyl)cyclohexyl)-2-(1-(phenylsulfonyl)piperidin-3-yloxy)acetamide]", "inhibition at 1 µM": 96}
{"smiles": "COc1cc(C)c(S(=O)(=O)N2CCC(OCC(=O)NC3CCC(C(c4cccs4)N(C)C)CC3)C2)c(C)c1C", "note": "(stereo not drawn) [Example 43, N-(4-((dimethylamino)(thiophen-2-yl)methyl)cyclohexyl)-2-(1-(4-methoxy-2,3,6-trimethylphenylsulfonyl)pyrrolidin-3-yloxy)acetamide]", "inhibition at 1 µM": 96}
{"smiles": "COc1cc(C)c(S(=O)(=O)N2CCC(OCC(=O)NCC3CCC(C(c4ccccc4)N(C)C)CC3)C2)c(C)c1C", "note": "(stereo not drawn) [Example 44, N-((4-((dimethylamino)(phenyl)methyl)cyclohexyl)methyl)-2-(1-(4-methoxy-2,3,6-trimethylphenylsulfonyl)pyrrolidin-3-yloxy)acetamide]", "inhibition at 1 µM": 96}
{"smiles": "COc1ccc(S(=O)(=O)N2CCCCC2COCC(=O)NCC2CCC(C(c3cccs3)N(C)C)CC2)cc1", "note": "(stereo not drawn) [Example 45, N-((4-((dimethylamino)(thiophen-2-yl)methyl)cyclohexyl)methyl)-2-((1-(4-methoxyphenylsulfonyl)piperidin-2-yl)methoxy)acetamide]", "inhibition at 1 µM": 96}
{"smiles": "COc1ccc(S(=O)(=O)N2CCCCC2CCOCC(=O)NCCC2CCC(C(c3cccs3)N(C)C)CC2)cc1", "note": "(stereo not drawn) [Example 46, N-(2-(4-((dimethylamino)(thiophen-2-yl)methyl)cyclohexyl)ethyl)-2-(2-(1-(4-methoxyphenylsulfonyl)piperidin-2-yl)ethoxy)acetamide]", "inhibition at 1 µM": 96}
{"smiles": "COc1ccc(S(=O)(=O)N2Cc3ccccc3CC2COCC(=O)NC2CCC(C(c3cccs3)N(C)C)CC2)cc1", "note": "(stereo not drawn) [Example 47, N-(4-((dimethylamino)(thiophen-2-yl)methyl)cyclohexyl)-2-((2-(4-methoxyphenylsulfonyl)-1,2,3,4-tetrahydroisoquinolin-3-yl)methoxy)acetamide]", "inhibition at 1 µM": 96}
{"smiles": "COc1ccc(S(=O)(=O)N2Cc3ccccc3CC2COCC(=O)NCCC2CCC(C(c3cccs3)N(C)C)CC2)cc1", "note": "(stereo not drawn) [Example 48, N-(2-(4-((dimethylamino)(thiophen-2-yl)methyl)cyclohexyl)ethyl)-2-((2-(4-methoxyphenylsulfonyl)-1,2,3,4-tetrahydroisoquinolin-3-yl)methoxy)acetamide]", "inhibition at 1 µM": 96}
{"smiles": "COc1ccc(S(=O)(=O)N2CCCCC2COCC(=O)NCC2CCC(C(c3cccs3)N(C)C)CC2)c(OC)c1", "note": "(stereo not drawn) [Example 49, 2-((1-(2,4-dimethoxyphenylsulfonyl)piperidin-2-yl)methoxy)-N-((4-((dimethylamino)(thiophen-2-yl)methyl)cyclohexyl)methyl)acetamide]", "inhibition at 1 µM": 96}
{"smiles": "COc1cc(C)c(S(=O)(=O)N(C)CCOCC(=O)NCCC2CCC(C(c3cccs3)N(C)C)CC2)c(C)c1C", "note": "(stereo not drawn) [Example 52, N-(2-(4-((dimethylamino)(thiophen-2-yl)methyl)cyclohexyl)ethyl)-2-(2-(4-methoxy-N,2,3,6-tetramethylphenylsulfonamido)ethoxy)acetamide]", "inhibition at 1 µM": 95}
{"smiles": "CN(C)C(c1ccccc1)C1CCC(CNC(=O)COCCN(C)S(=O)(=O)c2ccc(OC(F)(F)F)cc2)CC1", "note": "(stereo not drawn) [Example 53, N-((4-((dimethylamino)(phenyl)methyl)cyclohexyl)methyl)-2-(2-(N-methyl-4-(trifluoromethoxy)phenylsulfonamido)ethoxy)acetamide]", "inhibition at 1 µM": 95}
{"smiles": "CN(C)C(c1cccs1)C1CCC(CNC(=O)COC2CCN(S(=O)(=O)c3ccc(Cl)cc3)C2)CC1", "note": "(stereo not drawn) [Example 54, 2-(1-(4-chlorophenylsulfonyl)pyrrolidin-3-yloxy)-N-((4-((dimethylamino)(thiophen-2-yl)methyl)cyclohexyl)methyl)acetamide]", "inhibition at 1 µM": 95}
